Common to all, as to type: cell-based
The test system of test [1] is Type III protein secretion of ExoU by P. aeruginosa PA103. In words: Tertiary assay: Type III-dependent secretion of ExoU by P. aeruginosa PA103. The settings on record: Pseudomonas aeruginosa, read-out: ExoU IC50(uM). In a few lines:
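PA103 grown in deferrated medium with nitrilotriacetic acid to induce Type III secretion, with or without inhibitor, over a prolonged growth period. Supernatant proteins concentrated by ammonium sulfate precipitation, separated by SDS-PAGE, Colloidal Blue-stained; 73.9 kDa ExoU band quantified by imaging relative to untreated controls.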

For test [2], the system named is SPI1 type III protein secretion of SipB by S. enterica. In words: Secondary assay: Type III-dependent protein secretion of the SipB polypeptide by S. enterica. The settings on record: Salmonella enterica, read-out: SipB IC50(uM). In a few lines:
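S. enterica cultured with or without inhibitor and induced for SipB production; after growth, cells pelleted and secreted SipB in supernatant measured by immunoblot with anti-SipB mouse monoclonal plus HRP anti-mouse and chemiluminescence, quantified by scanning imager. Inhibition expressed relative to untreated controls.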

Test [3] has as its system SPI1 type III protein secretion of SopE'-'Bla by Salmonella enterica. In words: Primary assay: Type III protein secretion of the chimeric SopE'-'Bla polypeptide by Salmonella enterica. As to conditions: read-out: SopE IC50(uM). The gist of the method:
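S. enterica grown under SPI1-favouring conditions was induced to express SopE′-′Bla (SopE secretion signal fused to signal-less TEM-1 β-lactamase) and cultured with or without compound for a set time. Secreted reporter was quantified by colorimetric hydrolysis of cell-impermeant nitrocefin added to the cultures.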

The term IC50 denotes the concentration needed to halve the response being measured.

As to `O=C(NC(Cc1ccc(Cl)cc1)C(=O)O)c1cc(N2CCN(c3nccc(C(F)(F)F)n3)CC2)nc(-c2ccc(F)cc2)n1` (stereo not drawn) [Compound 56, 3-(4-Chlorophenyl)-2-({2-(4-fluorophenyl)-6-[4-(4-trifluoromethylpyrimidin-2-yl)-piperazin-1-yl]pyrimidine-4-carbonyl}amino)propionic acid], the IC50 in test [1] came out at 55.4 µM; in test [2], 4.5 µM; in test [3], 2.2 µM.

Consider `O=C(N[C@@H](CSCc1ccccc1)C(=O)O)c1cc(N2CCN(c3nccc(C(F)(F)F)n3)CC2)nc(-c2ccoc2)n1` [Compound 61, (R)-3-Benzylsulfanyl-2-({2-furan-3-yl-6-[4-(4-trifluoromethylpyrimidin-2-yl)-piperazin-1-yl]pyrimidine-4-carbonyl}amino)propionic acid], for which the IC50 in test [1] was > 100 µM; in test [2], 43.2 µM; in test [3], 10.2 µM.

Turning to `O=C(NC(Cc1ccc(Cl)cc1)C(=O)O)c1cc(N2CCN(c3nccc(C(F)(F)F)n3)CC2)nc(-c2ccc([N+](=O)[O-])cc2)n1` (stereo not drawn) [Compound 53, 3-(4-Chlorophenyl)-2-({2-(4-nitrophenyl)-6-[4-(4-trifluoromethylpyrimidin-2-yl)-piperazin-1-yl]pyrimidine-4-carbonyl}amino)propionic acid], the IC50 in test [1] turned out to be 40.4 µM; in test [2], 84.6 µM; in test [3] it was 1.2 µM.

The record behind these values is US20050282824A1, “Substituted pyrimidines as inhibitors of bacterial type III protein secretion systems” (priority 2004, published 2005).
